Entries after “also recorded” stand apart in the source; their conditions may differ. Like-named read-outs stand apart in the source and are kept apart here.
Columns and labels:
[1] = MST of Dox alone in hybridization solution; type: physicochemical; settings: 3.125-100 μM Dox; no RNA, no probes; blue mode
Method: In order to investigate the possibility that Dox monomers interact with each other, thereby causing Dox to migrate into the heating zone particularly at high Dox concentrations, Dox was incubated in hybridization solution without the presence of either S-gene RNA or the DNA probes.

human total RNA = assay: MST of 16S probe / Dox with human total RNA (specificity); type: binding; settings: 100 μM Dox with 16S1^Cy5; blue mode
Method: (§1) In order to assess the effect of human RNA presence and Dox post-hybridization on signal response, 16S1^Cy5 was incubated with increasing concentrations of bacterial or human total RNA at 71° C. for 2 hours. Equal amounts were then taken for post-hybridization incubation with Dox or hybridization buffer as a control.
In order to compare signal sensitivity in the presence and absence of Dox, ΔFnorm[‰] values of human RNA were subtracted (ΔΔFnorm), and the ratios of ΔΔFnorm[‰] were compared.

16S rRNA (E. coli) = assay: MST of Cy5 probes hybridized with total bacterial RNA; type: binding
Method: For bacterial RNA extraction, DH5α E. coli cells transfected with pcDNA3.1+ plasmid were grown overnight in LB medium containing 100 μg/ml ampicillin. The concentration of bacterial cells was determined according to OD at 600 nm, and ˜7·10^8 cells were taken for RNA extraction. 1 volume of bacterial culture was mixed with 2 volumes of RNAprotect® Bacteria Reagent (QIAGEN), vortexed for 5 seconds and incubated for 5 minutes at room temperature. The sample was then centrifuged for 10 minutes at 5,000×g at room temperature. After discarding supernatant, the pellet was resuspended in 100 μl TE buffer (10 mM Tris-HCl, 1 mM EDTA, pH 8) containing 1 mg/ml lysozyme. The samples were vortexed for 5 seconds, and then incubated at room temperature for 10 minutes with vortexing every 2 minutes. 1 ml TRIzol™ reagent was added to the sample. The sample was incubated at room temperature for 5 minutes, and then RNA extraction was performed as described hereinabove.
(§2) RNA was extracted from a sample, and after extraction, the RNA pellet was solubilized and hybridized with a specific fluorescently labeled DNA probe in a hybridization solution (as schematically depicted in FIG. 1). After hybridization, the hybridized sample was loaded into an MST capillary and inserted into a Monolith™ MST instrument (NanoTemper Technologies GmbH, Germany). This instrument included a blue mode (493 nm excitation, […]) and red mode ([…], 670 nm emission) for detection, and an I.R laser (1475 nm+/−15 nm) for heating. The intensities for both fluorescence detection (LED) and IR laser are adjustable, in a range of 0%-100%, wherein the temperature gradient generated has a temperature difference of up to about 2-8° C. Thermophoretic force was induced by infrared laser after 1 second, and maintained for 2 seconds, for a total of a 3 second measurement window (measurement time may optionally be further reduced to 2 seconds using current available MST instruments).
For RNA titration measurements, the extracted RNA solution was diluted to X2 and a serial dilution was prepared in water. Hybridization solutions were prepared as described herein, were X1 solution consisted of SSC buffer X1, 0.05% TWEEN™ 20 surfactant, and 1% formamide unless indicated otherwise. Fluorescently labeled probes were diluted from a 100 μM stock to 1:2400 in hybridization solution X2, denatured for 5 minutes at 100° C. and then incubated on ice for 5 minutes. If a mixture of uniformly labeled probes was prepared, the probes were diluted to a 1:1200 dilution in water and then diluted to 1:2400 with hybridization solution X4 (1:1/number of probes) to create equal molarity of the fluorescent dye. The probe solution was combined with the titration series in a 1:1 (v/v) ratio (10 μL total volume) and allowed to hybridize at a defined temperature for a given time as described. If post-hybridization with intercalating agents (ICA), doxorubicin or Midori™ Green, was performed, the samples were combined with ICA X5 solution 4:1 (v:v) ratio, 8 μL and 2 μL respectively. For cell based measurements, after extraction, the RNA pellet was solubilized and hybridized with a specific fluorescently labeled DNA probe in a hybridization solution (as schematically depicted in FIG. 1).
In order to determine the optimal hybridization temperature, one of the designed probes (16S1^Cy5) was incubated with increasing concentrations of bacterial RNA at different temperatures for 10 minutes. MST measurements were then performed using the red wavelength acquisition mode.
as §1, with “control. […]” for “control.”

S-gene RNA (SARS-CoV2) = type: binding
HA gene (H1N1 influenza) = type: binding
S-HA gene = assay: MST of probes with artificial S-HA gene RNA (target length effect); type: binding
control RNA = assay: MST of probes incubated with control RNA (specificity); type: binding; settings: in the presence of 100 μM Dox; red mode
18S rRNA (human) = assay: MST of probe hybridized with human RNA extracted from HEK 293T cells; type: binding
Excerpt: as §2
For RNA titration measurements, the extracted RNA solution was diluted to X2 and a serial dilution was prepared in water. Hybridization solutions were prepared as described herein, were X1 solution consisted of SSC buffer X1, 0.05% TWEEN™ 20 surfactant, and 1% formamide unless indicated otherwise. Fluorescently labeled probes were diluted from a 100 μM stock to 1:2400 in hybridization solution X2, denatured for 5 minutes at 100° C. and then incubated on ice for 5 minutes. […]
As depicted in FIG. 3, fluorescent signals were quantified in the 1 second before application of a temperature gradient (Fcold) and between 1 and 2 seconds after application of the temperature gradient (Fhot). […]
As the probes are tagged with different florescent dyes, 18S^ATTO488 can be used as a control for the RNA extraction process. […] The signals of 18S^ATTO488 were measured using a blue wavelength acquisition mode and S^Cy5 using a red wavelength acquisition mode. […]

E. coli = assay: Antimicrobial susceptibility testing (AST) with MST read-out of 16S rRNA; parameters: dose or concentration left out as unconfirmed; settings: 5*10^5 bacteria; 90-150 minutes
Method: Kanamycin resistant E. coli bacteria, DH5α or BL-21, were maintained as frozen stocks at −80° C. in homemade L.B (Bacto tryptone 10 g/L, NaCl 10 g/L Bacto yest extract 5 g/L in autoclavable DDW) supplemented with 50% Glycerol as cryoprotective agent. Cultures were started from frozen stocks and cultivated at 37° C. overnight, at the presence of 30 μg/ml Kanamycin. After starter growth, bacteria amount was measured using optical density for further experiments.
Bacteria was grown as described in “bacterial growth” section and adjusted to 0.1 O.D for a second growing step after overnight starter. When reached 0.6 O.D, bacterial concentration adjusted to 7.143*10^5 bacteria/ml and 0.7 ml (5*10^5 bacteria) were divided to slit-cap Eppendorf tubes containing Ampicillin antibiotic or water as control. The tubes were placed in a temperature control thermo-mixer for further growth at 37° C. At an indicated time-point, tubes were taken out combined with RNA protect reagent for RNA extraction as previously described.

COc1cccc2c1C(=O)c1c(O)c3c(c(O)c1C2=O)C[C@@](O)(C(=O)CO)C[C@@H]3O[C@H]1C[C@H](N)[C@H](O)[C@H](C)O1 [Dox, doxorubicin, reference compound]
degree of Dox migration into the heating zone [1]: correlated to Dox concentration
Dox signal dependence on RNA concentration (human total RNA): dependent on the concentrations of both human RNA and bacterial RNA
effect of Dox on signal sensitivity of 16S probes (16S rRNA (E. coli); 100 μM Dox post-hybridization): increased signal sensitivity; also recorded: enhanced signal sensitivity to a considerable extent
Dox signal dependence on RNA concentration (16S rRNA (E. coli); 100 μM Dox with 16S1^Cy5, blue mode): dependent on the concentrations of both human RNA and bacterial RNA
effect of Dox on slope of S^Cy5 linear regression (analytical sensitivity) (S-gene RNA (SARS-CoV2); 100 μM Dox vs 0, 1 or 10 μM Dox): steeper slope
effect of S-gene RNA concentration on Dox signal without DNA probe (S-gene RNA (SARS-CoV2); 100 μM Dox, no S^Cy5 probe, blue mode): did not noticeably affect the change in signal
Dox fluorescence dependence on S-gene RNA concentration (S-gene RNA (SARS-CoV2); 1, 10 or 100 μM Dox, S^Cy5 present, blue mode): dependent on S-gene RNA concentration
effect of Dox on initial fluorescence intensity of S^Cy5 (S-gene RNA (SARS-CoV2); 1, 10 or 100 μM Dox, dose-dependent, prior to temperature gradient): decreased the initial fluorescence intensity values

S^Cy5: 33 base DNA (SEQ ID NO: 2) tagged with red dye Cy5, binds the middle of SARS-CoV2 S-gene RNA (DNA GGATTGACTAGCTACACTACGTGCCCGCCGAGG; DNA, backbone not given here; Cy5 dye label)
signal response to HA-gene (off-target) (HA gene (H1N1 influenza); red mode, data not shown): no response in signal was observed
sensitivity (slope at low RNA levels), S-HA-gene vs S-gene (S-HA gene): considerably greater sensitivity than towards S-gene
affinity towards S-HA gene compared with S-gene (S-HA gene; red mode, FIG. 55): higher affinity towards S-HA gene than to S-gene
maximum signal response, S-gene vs S-HA gene (S-HA gene; red mode, FIG. 55): did not differ
average maximum ΔFnorm (S-gene RNA (SARS-CoV2)): 547.1 ‰
selectivity of signal response to target RNA (S-gene RNA (SARS-CoV2)): selective signal responses to their target RNA
direction of thermophoretic flux (S-gene RNA (SARS-CoV2); in the presence of 100 μM Dox, increasing S-gene, red mode): towards the heating zone
dependence of thermophoretic signal on S-gene RNA concentration (S-gene RNA (SARS-CoV2); in the presence of 100 μM Dox, red mode): altered by S-gene RNA in a dose-dependent manner
Z′-factor (S-gene RNA (SARS-CoV2); maximum signal response with S-gene compared to no RNA control): 0.85
concomitant detection of S-gene in presence of human extracted RNA (S-gene RNA (SARS-CoV2); mixed with 18S^ATTO488, hybridization at 42° C. for 30 minutes): effective and quantitative
ΔFnorm (signal response) (S-gene RNA (SARS-CoV2); no Dox, FIG. 37): 110.63 ‰
average maximum ΔFnorm (S-gene RNA (SARS-CoV2); no Dox, red mode): 116.5 ‰
dependence of thermophoretic/fluorescent signal on S-gene RNA concentration (S-gene RNA (SARS-CoV2); no intercalating agent, red wavelength acquisition mode): dependent on the dose of complementary RNA; also recorded: exhibited a thermophoretic signal dependent on S-gene RNA concentration
effect of control RNA on probe signal (control RNA): no effect

18S^ATTO488: probe with SEQ ID NO: 6 tagged with blue fluorescent dye ATTO 488, targets human 18S rRNA (DNA AGGGGCTGACCGGGTTGGTTTTGATCTGATAAATGCACGCATCCCC; ATTO 488 label; misc_feature 1..46 ATTO488 labeled; DNA sequence complementary to nucleotides 205-250 of SEQ ID NO: 5)
selectivity of signal response to target RNA (18S rRNA (human); 100 ng/μl HEK 293T RNA vs 400 ng/μl S-gene, 400 ng/μl control RNA or no RNA, blue mode): selective signal responses to their target RNA
dependence of fluorescent signal on complementary RNA dose (18S rRNA (human); RNA extracted from HEK 293T cells, blue mode): dependent on the dose of complementary RNA
concomitant detection of 18S rRNA in human extracted RNA (18S rRNA (human); mixed with S^Cy5, hybridization at 42° C. for 30 minutes): effective and quantitative

CC1(C)S[C@@H]2[C@H](NC(=O)[C@H](N)c3ccccc3)C(=O)N2[C@H]1C(=O)O [Ampicillin]
growth of E. coli bacteria in the presence of antibiotic (E. coli): no growth was observed

HA^ATTO488: DNA having SEQ ID NO: 8 tagged with blue fluorescent dye ATTO 488, targets H1N1 HA-gene (DNA TGAAGCCGGCAATGGCCCCGAATAGGCCTCTAG; ATTO 488 label; misc_feature 1..33 DNA sequence complementary to nucleotides 567-599 of SEQ ID NO: 7 (nucleotides 1048-1080 of Influenza A H1N1 HA gene; ATTO488 labeled)
effect of higher saline sodium citrate buffer concentration on detection sensitivity (HA gene (H1N1 influenza); SSC X1, X2, X4, blue mode): increased detection sensitivity
dependence of signal on HA-gene concentration (HA gene (H1N1 influenza); blue mode): dose-dependent signal; also recorded: dependent on the concentration of HA-gene
dependence of signal on S-gene concentration (off-target) (S-gene RNA (SARS-CoV2); SSC X1, 10% (v/v) formamide, blue mode): not on the concentration of S-gene or control RNA

— patent publication US20250340939A1 (priority 2021, published 2025)
